Source: US12415845B2 (priority 2018, dated 2025)

Experiments:
B16-mhgp100 tumors [1] = assay: Anti-tumor efficacy in B16 melanoma model, citrate vs potassium hydroxycitrate; type: in vivo, mice; conditions: T cells cultured in potassium hydroxycitrate or citrate; FIGS. 17A-17C
T cells [2] = assay: Cytoplasmic citrate and AcCoA quantification in treated T cells; type: cell-based, mouse
Description: T cells (n=3) cultured in control or potassium hydroxycitrate conditions were collected and washed in PBS to perform the total and cytoplasmic AcCoA and citrate levels. Samples were homogenized in 1% TRITON X-100 nonionic surfactant, 20 mM Tris-HCl, pH=7.4, 150 mM NaCl on ice for 10 min (Sigma Acetyl-Coenzyme A Assay Kit—MAK039) or citrate buffer (Sigma Citrate Assay Kit—MAK057) (Sigma, St. Louis, MO) as per the directions provided in the kit. For total AcCoA quantification, pelleted cells were extracted using 80% methanol or 5% sulfo-salicylic acid with 50 μM DTT. After cell lysis, samples were deproteinized with a 10 kDa molecular weight cut-off (MWCO) spin filter prior to the assay. AcCoA concentrations were interpolated with AcCoA standards using fluorometric assay (Ex=535, Em=587) or by mass spectrometry. Citrate concentrations were interpolated with citrate standards using colorimetric assay (570 nm). […]
Cytoplasmic citrate and cytoplasmic AcCoA were quantified following treatment of cells with potassium hydroxycitrate or negative control. […]
Cytoplasmic AcCoA was quantified following treatment with a combination of potassium hydroxycitrate and 5 mM acetate, potassium hydroxycitrate only, or control (neither potassium hydroxycitrate nor acetate) (FIG. 14).

[3] = tested on: IFN-γ locus in CD8+ Pmel-1 cells; assay: ChIP-PCR of H3K9Ac deposition at the IFN-γ locus; type: cell-based, mouse; conditions: vs negative control; FIG. 2C
Description: Chromatin Immunoprecipitations were performed with validated antibodies from previous literatures (Gray et al., Immunity, 46(4): 596-608 (2017); Peng et al., Science, 354(6311): 481-484 (2016)) and protocols were followed according to manufacturing instructions provided by the CHIP-IT express shearing kit (Active Motif, Carlsbad, CA). Briefly, CD8+ Pmel-1 cells were fixed with formaldehyde for 7 minutes on a rocking platform and quenched with 1× of Glycine. Cells were pelleted with phenylmethylsulfonyl fluoride (PMSF) and protein inhibition cocktail and stored at −80 prior to cell lysis. Thawed cells were suspended in ice cold lysis buffer to obtain nuclei material. Nuclei material was sheared by incubating with enzymatic cocktail for 15 minutes at 37° C. Sheared chromatin with a total of 7.5 μg/sample was incubated with protein G magnetic beads with anti-H3K27Ac (Abcam Cat #ab4729), H3k9Ac (Abcam Cat #ab4441) (Abcam, Cambridge, UK) and anti IgG at 4° C. overnight. Magnetic beads were washed with buffers to remove unbound immune complexes and eluted with 150 μl of elution buffer. […] Concentration of the ChIP DNA was measured with high sensitive DNA assay protocol on tape station to normalize the DNA. Samples were sequenced on illumina Next seq system (Illumina, San Diego, CA) with 75 bp reads in single end mode with approximately 40M reads per sample. […]

T cells [4] = assay: Autophagy flux, GFP-mCherry-LC3b reporter, flow cytometry; type: cell-based, mouse
CD8+ Pmel-1 T cells [5] = assay: Flow cytometry of CD62L/CD44 and IFN-γ production; type: cell-based, mouse; conditions: 5 mM
Description: CD8^+ T cells from Pmel-1 mice were stimulated in vitro with 1 μM hgp10025-33 peptide for 5 days and secondary restimulation was done with plate-bound anti-CD3 (1 μg/ml; BD Biosciences, Franklin Lakes, NJ) and soluble anti-CD28 (1 μg/ml; BD Biosciences) and expanded in culture medium containing 60 IU of IL-2. The conditions control/potassium hydroxycitrate (FIG. 7) were activated in the above conditions for a total of 10 days. For measuring T cell effector function, these cells were stimulated on day 10 in the indicated conditions for 5 h with anti-CD3 and -CD28 without IL-2 in the presence of brefeldin A and monesin (BD Biosciences).
(§1) For all flow cytometry experiments, T cells were stained with a fixable live/dead stain (Invitrogen, Waltham, MA) in phosphate buffered saline (PBS) followed by surface antibody staining in FACS buffer (PBS with 0.5% bovine serum albumin (BSA) and 0.1% sodium azide). For intracellular cytokine staining, cells were first stained for surface markers and later stained for intracellular molecules following fixation and permeabilization (BD CYTOFIX/CYTOPERM fixation/permeabilization solution kit). For phospho-staining, BD PHOSFLOW reagents (BD Biosciences) were used and protocols were carried out according to the manufacturer's protocols. After washing, cells were stained with phospho-antibodies purchased from Cell Signaling (Danvers, MA). […] All experiments were conducted on a BD FORTESSA flow cytometer (Becton Dickinson, Downers Grove, IL) and analyzed with FLOWJO software (TreeStar, Ashland, OR).
(§2) CD8+ Pmel-1 T cells were activated with mhgp100 peptide for 5 days in the presence of 5 mM potassium hydroxycitrate followed by secondary stimulation with anti-CD3 (1 μg/ml) and anti-CD28 (1 μg/ml) (FIG. 7A). Cells were analyzed for surface markers or intracellular cytokines on day 10.
Representative flow cytometry analysis and quantification of CD62L vs CD44 positive cells and IFN-γ+ production in T cells cultured in control or 2-hydroxy citrate (potassium hydroxycitrate (5 mM)) are shown in Table B and FIGS. 7A and 7B. […]

CD8+ Pmel-1 T cells [6] = assay: Annexin V/PI FACS of live, apoptotic and necrotic populations; type: cell-based, mouse
Description: as §2
Representative FACS data defining the percentages of live (Annexin V−PI−), apoptotic (Annexin V+PI−) and necrotic populations (Annexin V+PI+) cultured in control or potassium hydroxycitrate are provided in Table C and FIG. 8.

T cells [7] = assay: Acetate rescue: CD62L and IFN-γ by FACS; type: cell-based, mouse; conditions: control 49.4
Description: as §1
T cells were treated with a combination of potassium hydroxycitrate and acetate, potassium hydroxycitrate alone, or negative control. Expression of CD62L was measured by fluorescence-activated cell sorting (FACS).
IFN-γ secretion was also measured by FACS (Table D) and quantified (FIG. 13) following treatment with control, potassium hydroxycitrate alone, or a combination of potassium hydroxycitrate and acetate.

T cells [8] = assay: Autophagy by immunoblot, LC3II/LC3I ratio; type: cell-based, mouse; conditions: acetate 5 mM where present, control 0.7
Description: Ablation of autophagy was measured by immunoblot following treatment with a combination of potassium hydroxycitrate and 5 mM acetate, potassium hydroxycitrate only, or control (neither potassium hydroxycitrate nor acetate). Beta-actin was used as a control. Quantification of the autophagy flux was represented by ratio of LC3II/LC3I intensities.

[9] = tested on: transferred Ly5.1+ CD8+ T cells in mice bearing B16-mhgp100 tumors; assay: Persistence of transferred T cells in spleen of tumor-bearing mice; type: in vivo
B16-mhgp100 tumors [10] = assay: Anti-tumor efficacy after adoptive transfer of treated Pmel-1 T cells; type: in vivo, mice; conditions: FIGS. 5, 6, 11
[11] = tested on: adoptively transferred CD8+Ly5.1+ T cells; type: in vivo, mice; conditions: challenge with vaccinia rhgp100 1×10^7 PFU; negative control 7.8
human TIL = assay: TNF and IL-2 expression of human TIL by FACS; type: cell-based; conditions: 2.5 or 5 mM, vs vehicle
Description: Human TIL were cultured without stimulation, in vehicle, or in potassium hydroxycitrate (2.5 or 5 mM). The cells were analyzed for the expression of tumor necrosis factor (TNF) and IL-2.

Human CD8+ TILs = assay: CD62L expression of human CD8+ TILs during rapid expansion, FACS; type: cell-based; conditions: 5 mM
Description: Human CD8^+ TILs from various histologies were cultured in the presence or absence (control) of potassium hydroxycitrate (5 mM). In brief, TILs from fresh tumor digests were subjected with 30 ng ml^−1 OKT3 to a rapid expansion protocol (REP) using irradiated peripheral blood mononuclear cells (PBMC) grown cultured in 3,000 IU ml-1 IL-2 in RPMI 1640 and AIM-V, supplemented with 5% in-house human serum 100 μg ml^−1 streptomycin and 100 μg ml^−1 penicillin, 2 mM 1-glutamine, 10 μg ml^−1 gentamicin, for approximately 14 days.
Expression of CD62L was measured by FACS. […] Specifically, FIG. 20 presents representative FACS data for human TIL showing relatively higher expression of the lymphoid homing marker CD62L during TIL expansion for potassium hydroxycitrate cultured TILs as compared to control TILs ([…], 14% increase). FIG. 21 is a graph showing the percentages of cells (% of maximum) expressing CD62L following treatment with negative control or potassium hydroxycitrate. FIGS. 22A and 22B show the quantification of the data shown in FIG. 21 for CD45RO^+ CD62L^+ for two patient samples (Patient A and Patient B).

Compound: O=C(O)CC(O)(CC(=O)O)C(=O)O [Citrate, reference compound]
- antitumor efficacy in a B16 melanoma model (B16-mhgp100 tumors [1]): but not citrate improves antitumor efficacy

Compound: O=C([O-])CC(O)(C(=O)[O-])C(O)C(=O)[O-].[K+].[K+].[K+] (stereo not shown) [Potassium hydroxycitrate, potassium hydroxycitrate]
- cytoplasmic citrate (T cells [2]; T cells treated with potassium hydroxycitrate (ACLY inhibitor) vs negative control, FIG. 2A): citrate accumulation
- cytoplasmic AcCoA (T cells [2]; T cells treated with potassium hydroxycitrate vs negative control, FIG. 2B): depletion of cytoplasmic AcCoA
- H3K9Ac deposition at the IFN-γ locus (ChIP-PCR quantification) [3]: reduced H3K9Ac deposition
- percentage of mCherry positive cells which are GFP− (T cells [4]; flow cytometry, loss of GFP = autophagic flux, negative control 12.1): 33.2%
- percentage of mCherry positive cells which are GFP+ (T cells [4]; flow cytometry, negative control 83.0): 60.8%
- autophagy (T cells [4]; vs negative control): Enhanced autophagy
- percentage of cells CD44+ CD62L+ (CD8+ Pmel-1 T cells [5]; day 10, negative control 3.5): 30.7%
- percentage of cells IFN-γ+ (CD8+ Pmel-1 T cells [5]; day 10, negative control 59.3): 14.2%
- effector differentiation (CD8+ Pmel-1 T cells [5]; vs control): blockade of effector differentiation
- percentage of cells PI+ Annexin+ (necrotic) (CD8+ Pmel-1 T cells [6]; negative control 9.74): 2.4%
- percentage of cells PI− Annexin+ (apoptotic) (CD8+ Pmel-1 T cells [6]; negative control 18.1): 1.6%
- percentage of cells PI− Annexin− (live) (CD8+ Pmel-1 T cells [6]; negative control 71.0): 95.2%
- cellular apoptosis (CD8+ Pmel-1 T cells [6]; vs control): reduced cellular apoptosis
- percentage of IFN-γ positive cells (T cells [7]): 18.2%
- autophagy flux, ratio of LC3II/LC3I intensities (T cells [8]): 2.1
- in vivo persistence following adoptive transfer ([9]; T cells cultured in potassium hydroxycitrate vs control): enhanced in vivo persistence
- percentage Ly5.1+ CD8+ T cells in spleen ([9]; day 7 after transfer, tumor-bearing mice, negative control 9.2): 46.3%
- antitumor efficacy (B16-mhgp100 tumors [10]): improved antitumor efficacy
- % Ly5.1+ CD8+ T cells, recall response [11]: 25.9%
- antitumor efficacy in a B16 melanoma model (B16-mhgp100 tumors [1]): improves antitumor efficacy
- poly-functionality (TNF and IL-2 expression) (human TIL): improves poly-functionality of human TIL
- CD62L expression, representative FACS data (Human CD8+ TILs; about 14 days REP, control 56.2, FIG. 20): 66.6
- expression of the lymphoid homing marker CD62L during TIL expansion (Human CD8+ TILs; vs control): maintained relatively higher expression
- increase of CD62L expression vs control TILs (Human CD8+ TILs; FIG. 20): 14%
